Values after ≈ are worked out from the molar mass of the structure shown. A value given as a limit tells only on which side of the number the result lay.

The values below come from patent publication US5571831A, “Imidazole derivative, and pharmaceutical composition” (Kureha Chemical Industry Co., Ltd., priority 1992, dated 1996).

What all share (experiment): Minimum inhibitory concentration (agar medium)
Assay type in all cases: cell-based

For assay [1], the system named is Candida albicans IFO 1060. Particulars: IFO1060, 72 h; Candida albicans IFO 1060, 27° C., 3 days, Sabouraud dextrose agar. Here is the method: (§1) The minimum inhibitory concentrations (MIC) in vitro of the compounds 1 to 3 of the present invention against microorganisms belonging to the genera Candida and Aspergillus were determined. (1) The strains of the microorganisms used were as follows. The inoculation solutions were prepared at a concentration of 1×10^6 cells/ml. 1) Candida albicans IFO 1060 (2) As the medium, a Sabouraud dextrose agar medium (Difco: dextrose 2%, agar 1.8%, not adjusted in pH) was used. The samples of the compounds to be tested were used after dissolved in dimethyl sulfoxide. The concentrations of the samples were from […]. The agar media containing the different concentrations of the compounds to be tested were inoculated with the microorganisms, using a microplanter (Sakuma Seisakusho). The microorganisms belonging to the genera Candida were cultured at 27° C. for 3 days, and the microorganisms belonging to the genus Aspergillus at 27° C. for 5 days.

The test system of assay [2] is Candida albicans IFO 1270. Conditions: IFO1270, 72 h; Candida albicans IFO 1270, 27° C., 3 days, Sabouraud dextrose agar. Here is the method: as §1, with “cells/ml. 2)” for “cells/ml. 1)”, “IFO 1270” for “IFO 1060”
For assay [3], the system named is Candida albicans ATCC 762. Particulars: ATCC762, 72 h; Candida albicans ATCC 762, 27° C., 3 days, Sabouraud dextrose agar. As to the method: as §1, with “cells/ml. 3)” for “cells/ml. 1)”, “albicans ATCC 762” for “albicans IFO 1060”
For assay [4], the system named is Candida tropicaris IFO 1400. Conditions: IFO1400, 72 h; Candida tropicaris IFO 1400, 27° C., 3 days, Sabouraud dextrose agar. Here is the method: as §1, with “cells/ml. 4)” for “cells/ml. 1)”, “Candida tropicaris” for “Candida albicans”, “IFO 1400” for “IFO 1060”
A further assay has as its system Candida krusei IFO 1395. Particulars: Pichia kudriavzevii, IFO1395, 72 h; Candida krusei IFO 1395, 27° C., 3 days, Sabouraud dextrose agar. Here is the method:
as §1, with “cells/ml. 5)” for “cells/ml. 1)”, “Candida krusei” for “Candida albicans”, “IFO 1395” for “IFO 1060”

For assay [5], the system named is Candida parapsilosis IFO 1396. Conditions: Lodderomyces parapsilosis, IFO1396, 72 h; Candida parapsilosis IFO 1396, 27° C., 3 days, Sabouraud dextrose agar. Here is the method: as §1, with “cells/ml. 6)” for “cells/ml. 1)”, “Candida parapsilosis” for “Candida albicans”, “IFO 1396” for “IFO 1060”
The test system of assay [6] is Aspergillus fumigatus IFO 5840. Conditions: IFO5840, 120 h; Aspergillus fumigatus IFO 5840, 27° C., 5 days, Sabouraud dextrose agar. As to the method: as §1, with “7) Aspergillus fumigatus” for “1) Candida albicans”, “5840” for “1060”
In assay [7] the test system is Aspergillus fumigatus IFO 9733. Particulars: IFO9733, 120 h; Aspergillus fumigatus IFO 9733, 27° C., 5 days, Sabouraud dextrose agar. As to the method:
as §1, with “8) Aspergillus fumigatus” for “1) Candida albicans”, “9733” for “1060”

For `OC1(Cn2ccnc2)CCCC(c2ccc(F)cc2)C1` (centres unmarked) [Compound C, 3-(4-fluorophenyl)-1-(1H-imidazol-1-ylmethyl)-cyclohexane-1-ol, reference compound], the MIC (in general, the lowest concentration that inhibits growth of the organism) in assay [1] was 200 µg/mL (≈ 729 µM); in assay [2], 200 µg/mL (≈ 729 µM); in assay [3], 200 µg/mL (≈ 729 µM); in assay [4], more than 400 µg/mL; against Candida krusei IFO 1395, more than 400 µg/mL; in assay [5], more than 400 µg/mL. The MIC in assay [6] and in assay [7] was more than 400 µg/mL throughout.

On to `CC1(C)CCC(c2ccc(F)cc2)CC1(O)Cn1ccnc1` (racemic) [Compound 1, 2,2-dimethyl-5-(4-fluorophenyl)-1-(1H-imidazol-1-ylmethyl)-cyclohexane-1-ol], for which the MIC (in assay [1]; in assay [2]; in assay [3]; in assay [4]; in the assay with Candida krusei IFO 1395; in assay [5]) was 50 µg/mL (≈ 165 µM) each time. Moreover, the MIC in assay [6] and in assay [7] was 50 µg/mL (≈ 165 µM) each time.

Consider `CC1(C)CC[C@@H](c2ccc(O)cc2)C[C@@]1(O)Cn1ccnc1` (relative stereo) [Compound 3, 2,2-dimethyl-5-(4-hydroxyphenyl)-1-(1H-imidazoly-1-yl-methyl)-cyclohexane-1-ol], for which the MIC was 50 µg/mL (≈ 166 µM) in assay [1]; 100 µg/mL (≈ 333 µM) in assay [2]; 50 µg/mL (≈ 166 µM) in assay [3]; 50 µg/mL (≈ 166 µM) in assay [4]; 200 µg/mL (≈ 666 µM) in the assay on Candida krusei IFO 1395; 200 µg/mL (≈ 666 µM) in assay [5]. Also, the MIC in assay [6] and in assay [7] was 200 µg/mL (≈ 666 µM) throughout.

As to `CC1(C)CCC(c2ccc(Cl)cc2)CC1(O)Cn1ccnc1` (racemic) [Compound 2, 2,2-dimethyl-5-(4-chlorophenyl)-1-(1H-imidazol-1-ylmethyl)-cyclohexane-1-ol], the MIC in assay [1] is 50 µg/mL (≈ 157 µM); in assay [2] it was 25 µg/mL (≈ 78.4 µM); in assay [3] it was 25 µg/mL (≈ 78.4 µM); in assay [4], 100 µg/mL (≈ 314 µM); against Candida krusei IFO 1395, more than 100 µg/mL; in assay [5], more than 100 µg/mL. Further, the MIC in assay [6] and in assay [7] was 100 µg/mL (≈ 314 µM) each time.
